Source: patent US20230034660A1, “PEPTIDES THAT ENHANCE NMDA RECEPTOR FUNCTION AND USE THEREOF” (University of Pittsburgh - Of the Commonwealth System of …, priority 2019, published 2023)

Tested on: NMDAR
Assay: NMDAR Lev-EPSCs in auditory cortex L2/3 principal neurons, ZX1 effect
Format: cell-based, ICR mice
Details: auditory cortex slices incubated with peptide or scramble; 100 μM ZX1; +40 mV
Description: (FIG. 11A) Left: schematic illustration of stereotaxic injections in ICR mice, of retrograde microspheres of different colors to label corticocallosal (CCal) and corticollicular (CCol) neurons. CCol neurons were used to identify AC, and viral vector (AAV) for expression of channel rhodopsin (ChR2) in AC L2/3 PNs. Right: schematic illustrating slice electrophysiology experiment involving photostimulation of ChR2 expressing AC L2/3 PNs while recording from adjacent L2/3 PNs. (FIG. 11B) Top: representative traces of L2/3 PN NMDAR Lev-EPSCs (at +40 mV) evoked by a 0.15-ms duration pulse photostimulation of adjacent PNs in control and after 100 μM ZX1, in slices incubated with scramble. Bottom: same as the top panel in slices incubated with the peptide. (FIG. 11C) Time course of the average amplitude of NMDAR Lev-EPSCs before and after ZX1 in slices incubated with scramble and peptide. During the entire experiment application of DNQX and SR 95531 blocked AMPARs and GABAARs, correspondingly. (FIG. 11D) Average effect of ZX1 on L2/3 PN NMDAR Lev-EPSCs amplitudes normalized to control. Peptide ZX1 effect=99.02±3.8%, P=0.521, paired 1-tests, n=3 cells from two mice: Scramble ZX1 effect=159.4±15.8%, P=0.068, paired t-tests, n=4 cells from three mice. The difference is statistically significant at P=0.034, Unpaired t-test. Asterisk denotes a statistically significant difference at P<0.05. […]

| Sequence | ZX1 effect on L2/3 PN NMDAR Lev-EPSCs amplitudes normalized to control |
| --- | --- |
| NDSYLRSSL [Peptide N2AZ] | 99.02±3.8% |
| SNLSDSYDR [scN2AZ, reference compound] | 159.4±15.8% |
